Read-outs that look alike come from different tables or passages of the source.
Assays:
[1] = test system: RPMI 8226 tumor cells; test: Intratumoral XBP-1 spliced effect in Velcade treated RPMI xenografts; assay type: in vivo, Nude mice; conditions: Orin 1001 30 mg/kg PO on Day 27 in Velcade treated mice, tumor taken four hours later
Description: The mice were treated again on the 24th day with Velcade®. On Day 27, the mice were treated with Orin 1001 at 30 mg/kg PO, four hours later the mice were sacrificed as in Example 25, and tumor tissues were isolated. In a similar way as described for the liver PD test in Example 25, RNA extraction and RT-PCR analysis gave the results as shown FIG. 13.
BALB/c mice were injected intraperitoneally with 100 microliters at an equivalent dose of 1 mg/kg tunicamycin solution. Two hours after tunicamycin injection, mice were dosed with compound of interest either PO or IV. Following 2 hours for PO delivery of compound, mice were euthanized according to IACUC protocols using CO2 from a […] source. A 1 cm^3 fragment of the liver for homogenization and extraction of the RNA were collected for further analysis. Total RNA is harvested from cells or tissue using TRIzol according to the manufacturer's procedures. After ethanol precipitation and resuspension of the RNA, RiboGreen (Invitrogen) is used to quantify the yield and normalize the RNA concentration in the source tube containing isolated RNA. RT-PCR is performed by Oligo(dT) priming, and SuperScript II (Invitrogen) transcription using the Amplitaq Gold Kit (Applied Biosystems) according to the manufacturer's protocols. […]

[2] = test system: human breast adenocarcinoma MDA-MB231 tumor cells; assay type: in vivo
Description: Orin 1001 was administered by oral gavage in combination with paclitaxel in a xenograft mouse model using female NCr nu/nu mice injected subcutaneously with human breast adenocarcinoma MDA-MB231 tumor cells. To evaluate the effect of Orin 1001 in combination with paclitaxel on early, mid or late stage tumor growth, dosing was initiated either on Day 1 (when tumors reached 225-250 mm^3), Day 14 or Day 28 of tumor growth. Orin 1001 was administered via oral gavage at 300 mg/kg/day in combination with paclitaxel at 10 mg/kg iv, weekly (n=10/group) for up to 60 days.

[3] = test system: human breast adenocarcinoma MDA-MB231 tumor cells; assay type: in vivo; remark: listed apart in the source
Description: Orin 1001 was administered by oral gavage in combination with paclitaxel in a xenograft mouse model using female NCr nu/nu mice (n=10 in each group) injected subcutaneously with human breast adenocarcinoma MDA-MB231 tumor cells. To evaluate the effect of Orin 1001 in combination with paclitaxel, Orin 1001 was administered via oral gavage at 75, 150 or 300 mg/kg/day in combination with paclitaxel at 10 mg/kg iv, weekly (n=10/group) for up to 60 days.

[4] = test system: human ovarian carcinoma A2780 tumor cells; test: A2780 ovarian carcinoma xenograft (Example 18); assay type: in vivo, female NCr nu/nu mice; conditions: Orin 1001 300 mg/kg/day oral 28 days; paclitaxel 15 mg/kg iv weekly; endpoint 2000 mm^3 or Day 60
Description: Orin 1001 was administered by oral gavage in a xenograft mouse model using female NCr nu/nu mice injected subcutaneously with human ovarian carcinoma A2780 tumor cells. Animals were assigned to 4 groups (n=6/group); Vehicle control administered by oral gavage for 28 days, Orin 1001 administered via oral gavage at 300 mg/kg/day for 28 consecutive days, paclitaxel administered weekly by iv at 15 mg/kg, or Orin 1001 administered in combination with paclitaxel.
The percent tumor growth delay was calculated using the following equation: TGD (%)=[T-C/C]×100, where T-C is the difference in time to tumor endpoint from Treated (T) and Control (C).

[5] = test system: Hep3B-Luc cells; test: Orthotopic Hep3B-luc human liver xenograft model (Example 22); assay type: in vivo, female BALB/c nude mice
Description: The tumor was inoculated by injecting Hep3B-Luc cells (established by WuXi AppTec R&D center) mixed with BD Matrigel in 20 μl (PBS:Matrigel=1:1) into the left lobe of the liver. […] Sorafenib was formulated with Cremophor® EL/ethanol (1:1) and purified water to form a solution of 9 mg/ml. […] Tumor weight was measured at the termination of study. T/Cweight value (in percent) was calculated using the formula: T/Cweight%=Tweight/Cweight×100%, while Tweight and Cweight were the mean tumor weights of the treated and the vehicle control groups, respectively.

[6] = biological target: T1, IRE1α (Mus musculus, UniProt Q9EQY0); test: Liver PD screening assay: XBP-1 splicing analysis of liver after tunicamycin (Example 25); assay type: in vivo, BALB/c mice; conditions: PO, 2 hours after tunicamycin 1 mg/kg ip, liver 2 hours after dosing, FIG. 23, read-out: ED50 (inhibition of XBP-1 splicing in liver)
T1 construct: from tissue; host or cells: liver of BALB/c mice (in vivo)
T1 sequence (Q9EQY0 21-977): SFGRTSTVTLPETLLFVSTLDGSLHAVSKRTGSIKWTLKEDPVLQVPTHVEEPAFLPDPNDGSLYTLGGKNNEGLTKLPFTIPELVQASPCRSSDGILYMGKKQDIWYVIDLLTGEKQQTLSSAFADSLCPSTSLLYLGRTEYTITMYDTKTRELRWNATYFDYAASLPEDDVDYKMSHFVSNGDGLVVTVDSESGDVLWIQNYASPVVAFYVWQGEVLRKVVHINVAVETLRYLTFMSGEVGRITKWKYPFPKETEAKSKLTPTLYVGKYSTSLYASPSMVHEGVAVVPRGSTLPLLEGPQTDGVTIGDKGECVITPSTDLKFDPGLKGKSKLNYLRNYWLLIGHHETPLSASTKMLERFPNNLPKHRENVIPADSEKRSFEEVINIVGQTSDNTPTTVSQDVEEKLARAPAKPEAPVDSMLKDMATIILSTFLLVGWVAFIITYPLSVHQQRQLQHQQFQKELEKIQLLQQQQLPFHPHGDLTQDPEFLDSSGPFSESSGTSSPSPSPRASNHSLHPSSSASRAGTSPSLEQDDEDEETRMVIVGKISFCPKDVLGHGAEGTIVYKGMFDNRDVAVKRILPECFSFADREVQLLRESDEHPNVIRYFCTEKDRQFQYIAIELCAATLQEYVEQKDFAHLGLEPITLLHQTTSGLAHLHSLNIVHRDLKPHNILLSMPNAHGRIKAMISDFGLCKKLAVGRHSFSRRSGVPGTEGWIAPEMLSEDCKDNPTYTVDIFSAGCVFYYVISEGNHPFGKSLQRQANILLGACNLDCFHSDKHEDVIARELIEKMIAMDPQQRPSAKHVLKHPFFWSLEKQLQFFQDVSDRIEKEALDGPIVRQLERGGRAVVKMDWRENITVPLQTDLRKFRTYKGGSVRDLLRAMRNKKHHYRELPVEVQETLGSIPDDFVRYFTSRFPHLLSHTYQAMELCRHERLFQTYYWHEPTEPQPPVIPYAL
Description: Example 25 was related to comparative PD/PK data of Orin 1001 VS compound 4315, as its structure shown below, which is an earlier lead of this series of compounds. Tunicamycin was used herein to activate IRE1, then Orin 1001 (also called 4485) or 4315 were given to inhibit the activating effect. […] Each gel panel represents one mouse liver sample as in the figure.
BALB/c mice were injected intraperitoneally with 100 microliters at an equivalent dose of 1 mg/kg tunicamycin solution. Two hours after tunicamycin injection, mice were dosed with compound of interest either PO or IV. Following 2 hours for PO delivery of compound, mice were euthanized according to IACUC protocols using CO2 from a […] source. A 1 cm^3 fragment of the liver for homogenization and extraction of the RNA were collected for further analysis. Total RNA is harvested from cells or tissue using TRIzol according to the manufacturer's procedures. After ethanol precipitation and resuspension of the RNA, RiboGreen (Invitrogen) is used to quantify the yield and normalize the RNA concentration in the source tube containing isolated RNA. RT-PCR is performed by Oligo(dT) priming, and SuperScript II (Invitrogen) transcription using the Amplitaq Gold Kit (Applied Biosystems) according to the manufacturer's protocols. Primers for human XBP-1 are 5_-[…]-3_ (forward, Seq ID No. 8) and 5_-[…]-3_ (reverse, Seq ID No. 9), and for mouse are 5_-[…]-3_ (forward, Seq ID No. 10) and 5_-[…]-3 (Seq ID No. 11). All DNA oligos were purchased from IDT DNA Technologies. PCR is run on a Bio-Rad PTC-100 96-well thermocycler with heating at 94° C. for 30 s, annealing at 58° C. for 30 s, and polymerizing at 72° C. for 30 s for 35 cycles. Reactions are run on 4% precast NuSieve gels from Cambrex and visualized by ethidium bromide staining and UV excitation.
All PK experiments are standard tests that performed in either WuXi PharmaTech or Charels River Laboratory. 4315 and 4485 (Orin 1001) were dosed PO as a suspension in 1% microcellulose (Sigma) and 50% Sucrouse (Sigma).

[7] = 7-day toxicity study; assay type: in vivo; conditions: cynomolgus monkey

## COc1cc2c(C)c(CC(=O)N3CCOCC3)c(=O)oc2c(C=O)c1O [Orin 1001]
[1]
  inhibition of activated IRE1 (intratumoral XBP1s): can inhibit the activity of the activated IRE1
[2]; 300 mg/kg/day oral gavage with paclitaxel 10 mg/kg iv weekly, up to 60 days
  clinical signs of toxicity: no clinical signs of toxicity
[2]; up to 60 consecutive days
  tolerability of extended oral dosing: well tolerated
[3]; 75, 150 or 300 mg/kg/day oral gavage with paclitaxel 10 mg/kg iv weekly, up to 60 days
  clinical signs of toxicity: no clinical signs of toxicity
[3]; up to 60 consecutive days
  tolerability of extended oral dosing: well tolerated
[4]
  percent tumor growth delay (TGD): 29%
[5]; mean tumor weight treated / vehicle control, day 28
  T/Cweight (%): 56%
[5]; oral gavage 28 consecutive days, Orin 1001 80 mg/kg/day, sorafenib 45 mg/kg/day
  Tumor Weight (g) at day 28: 2.68 ± 1.69 g
[6]
  ED50: < 2 mg/kg
[7]
  5-fold safety margin: 750 mg/kg/day
[7]; in vivo, read-out: No Observable Adverse Effect Level (NOAEL)
  NOAEL at 7 day: 150 mg/kg/day

— patent publication US20210260069A1, “IRE1a INHIBITOR IN COMBINATION WITH CANCER [sequence] AGENT FOR CANCER TREATMENT” (Fosun Orinove PharmaTech, Inc., priority 2018, published 2021)
